Test system: male hamster auricular skin tissue sections containing sebaceous glands
Assay: Sebum production inhibitory effect on hamster auricular skin tissue sections (radiolabeled acetate incorporation, method of Hall et al.)
Type: cell-based
Conditions: cultured 3 hours in Krebs-Ringer phosphate buffer, vs left auricula control
Procedure: Compounds of the present invention (Compound Nos. 1-10) were evaluated for sebum production inhibitory effect on hamster auricular skin tissue sections containing sebaceous glands.
The method of Hall et al. (Hall, D. W. R., Van den Hoven, W. E., Noordzij-Kamermans, N. J., Jaitly, K. D., Arch. Dermatol. Res., 275, 1 (1983)) was followed. Namely, male hamster auricular skin tissue sections (3 mm in diameter) containing sebaceous glands were cultured for 3 hours in Krebs-Ringer phosphate buffer containing radioactively labeled sodium acetate, and then tissues were hydrolyzed and extracted with hexane. The radioactively labeled fat levels in hexane were measured in a liquid scintillation counter to determine fat production inhibition levels in sebaceous glands. Skin tissues isolated from the right auricula were cultured in Krebs-Ringer phosphate buffer containing 0.01% or 0.05% of compounds of the present invention (Compound Nos. 1-10) (compound systems), while skin tissues from the left auricula of the same hamster were cultured in Krebs-Ringer phosphate buffer containing no compounds of the present invention (control system). The sebum production inhibition percentage was calculated by the equation below from the test data obtained. Sebum production inhibition (%)=[(Sebum production level in control system)−(Sebum production level in each compound system)]/(Sebum production level in control system)×100

[1] = Concentration of compound in the medium 0.01%
[2] = Concentration of compound in the medium 0.05%

Row | Compound | Sebum production inhibition (%) [1] [%] | Sebum production inhibition (%) [2] [%]
1 | CC(=O)N[C@H]1[C@H](O[C@H]2[C@H](O)[C@@H](O)[C@H](O)O[C@@H]2C(=O)O)O[C@H](CO)[C@@H](O)[C@@H]1O[C@@H]1O[C@H](C(=O)O)[C@@H](O[C@@H]2O[C@H](CO)[C@@H](O)[C@H](O[C@@H]3OC(C(=O)O)=C[C@H](O)[C@H]3O)[C@H]2NC(C)=O)[C@H](O)[C@H]1O [compound 8, 4-deoxy-α-L-threo-hexa-4-enepyranuronosyl-(1-3)-O-2-acetamide-2-deoxy-β-D-glucopyranosyl-(1-4)-3-O-β-D-glucopyranuronosyl-(13)-O-2-acetamide-2-deoxy-β-D-glucopyranosyl-(1→4)-3-O-β-D-glucopyranuronic acid] | 30.7 | 56.6
2 | CC(=O)N[C@H]1[C@H](O[C@@H]([C@H](O)[C@@H](O)CO)[C@H](O)C(=O)O)O[C@H](CO)[C@@H](O)[C@@H]1O[C@@H]1OC(C(=O)O)=C[C@H](O)[C@H]1O [compound 9, 4-deoxy-α-L-threo-hexa-4-enepyranuronosyl-(1→3)-O-2-acetamide-2-deoxy-β-D-glucopyranosyl-(1→4)-3-O-β-D-glucopyranuronitol] | 13.9 | 20.0
3 | CC(=O)N[C@@H]1[C@@H](O[C@@H]2O[C@H](C(=O)O)[C@@H](O[C@@H]3O[C@H](CO)[C@@H](O)[C@H](O[C@@H]4O[C@H](C(=O)O)[C@@H](O[C@@H]5O[C@H](CO)[C@@H](O)[C@H](O[C@@H]6O[C@H](C(=O)O)[C@@H](O[C@@H]7O[C@H](CO)[C@@H](O)[C@H](O[C@@H]8OC(C(=O)O)=C[C@H](O)[C@H]8O)[C@H]7NC(C)=O)[C@H](O)[C@H]6O)[C@H]5NC(C)=O)[C@H](O)[C@H]4O)[C@H]3NC(C)=O)[C@H](O)[C@H]2O)[C@H](O)[C@@H](CO)O[C@H]1O [compound 3, 4-deoxy-α-L-threo-hexa-4-enepyranuronosyl-(1→3)-O-2-acetamide-2-deoxy-β-D-glucopyranosyl-(1→4)-3-O-β-D-glucopyranuronosyl-(1→3)-O-2-acetamide-2-deoxy-β-D-glucopyranosyl-(1→4)-3-O-β-D-glucopyranuronosyl-(1→3)-O-2-acetamide-2-deoxy-β-D-glucopyranosyl-(1→4)-3-O-β-D-glucopyranuronosyl-(1→3)-O-2-acetamide-2-deoxy-β-D-glucopyranose] | 48.5 | 47.7
4 | CC(=O)N[C@H]1[C@H](O[C@H]2[C@H](O)[C@@H](O)[C@H](O)O[C@@H]2C(=O)O)O[C@H](CO)[C@@H](O)[C@@H]1O[C@@H]1OC(C(=O)O)=C[C@H](O)[C@H]1O [compound 7, 4-deoxy-α-L-threo-hexa-4-enepyranuronosyl-(1-3)-O-2-acetamide-2-deoxy-β-D-glucopyranosyl-(1→4)-3-O-β-D-glucopyranuronic acid] | 14.2 | 15.9
5 | CC(=O)N[C@H]1[C@H](O[C@H]2[C@H](O)[C@@H](O)[C@H](O[C@@H]([C@H](O)[C@H](O)CO)[C@H](CO)NC(C)=O)O[C@@H]2C(=O)O)O[C@H](CO)[C@@H](O)[C@@H]1O[C@@H]1O[C@H](C(=O)O)[C@@H](O[C@@H]2O[C@H](CO)[C@@H](O)[C@H](O[C@@H]3OC(C(=O)O)=C[C@H](O)[C@H]3O)[C@H]2NC(C)=O)[C@H](O)[C@H]1O [compound 6, 4-deoxy-α-L-threo-hexa-4-enepyranuronosyl-(1→3)-O-2-acetamide-2-deoxy-β-D-glucopyranosyl-(1→4)-3-O-β-D-glucopyranuronosyl-(13)-O-2-acetamide-2-deoxy-β-D-glucopyranosyl-(1→4)-3-O-β-D-glucopyranuronosyl-(1→3)-O-2-acetamide-2-deoxy-β-D-glucopyranitol] | 30.8 | 55.7
6 | CC(=O)N[C@@H]1[C@@H](O[C@@H]2O[C@H](C(=O)O)[C@@H](O[C@@H]3O[C@H](CO)[C@@H](O)[C@H](O[C@@H]4O[C@H](C(=O)O)[C@@H](O[C@@H]5O[C@H](CO)[C@@H](O)[C@H](O[C@@H]6OC(C(=O)O)=C[C@H](O)[C@H]6O)[C@H]5NC(C)=O)[C@H](O)[C@H]4O)[C@H]3NC(C)=O)[C@H](O)[C@H]2O)[C@H](O)[C@@H](CO)O[C@H]1O [compound 2, 4-deoxy-α-L-threo-hexa-4-enepyranuronosyl-(1→3)-O-2-acetamide-2-deoxy-β-D-glucopyranosyl-(1→4)-3-O-β-D-glucopyranuronosyl-(1→3)-O-2-acetamide-2-deoxy-β-D-glucopyranosyl-(1→4)-3-O-β-D-glucopyranuronosyl-(1→3)-O-2-acetamide-2-deoxy-β-D-glucopyranose] | 28.6 | 50.1
7 | CC(=O)N[C@@H]1[C@@H](O[C@@H]2O[C@H](C(=O)O)[C@@H](O[C@@H]3O[C@H](CO)[C@@H](O)[C@H](O[C@@H]4OC(C(=O)O)=C[C@H](O)[C@H]4O)[C@H]3NC(C)=O)[C@H](O)[C@H]2O)[C@H](O)[C@@H](CO)O[C@H]1O [compound 1, 4-deoxy-α-L-threo-hexa-4-enepyranuronosyl-(1→3)-O-2-acetamide-2-deoxy-β-D-glucopyranosyl-(1→4)-3-O-β-D-glucopyranuronosyl-(1→3)-O-2-acetamide-2-deoxy-β-D-glucopyranose] | 15.7 | 17.8
8 | CC(=O)N[C@H]1[C@H](O[C@@H]([C@H](O)[C@@H](O)CO)[C@H](O)C(=O)O)O[C@H](CO)[C@@H](O)[C@@H]1O[C@@H]1O[C@H](C(=O)O)[C@@H](O[C@@H]2O[C@H](CO)[C@@H](O)[C@H](O[C@@H]3OC(C(=O)O)=C[C@H](O)[C@H]3O)[C@H]2NC(C)=O)[C@H](O)[C@H]1O [compound 10, 4-deoxy-α-L-threo-hexa-4-enepyranuronosyl-(1→3)-O-2-acetamide-2-deoxy-β-D-glucopyranosyl-(1→4)-3-O-β-D-glucopyranuronosyl-(1→3)-O-2-acetamide-2-deoxy-β-D-glucopyranosyl-(1→4)-3-O-β-D-glucopyranuronitol] | 39.8 | 55.1
9 | CC(=O)N[C@H]1[C@H](O[C@H]2[C@H](O)[C@@H](O)[C@H](O[C@@H]([C@H](O)[C@H](O)CO)[C@H](CO)NC(C)=O)O[C@@H]2C(=O)O)O[C@H](CO)[C@@H](O)[C@@H]1O[C@@H]1OC(C(=O)O)=C[C@H](O)[C@H]1O [compound 5, 4-deoxy-α-L-threo-hexa-4-enepyranuronosyl-(1→3)-O-2-acetamide-2-deoxy-β-D-glucopyranosyl-(1→4)-3-O-β-D-glucopyranuronosyl-(1→3)-O-2-acetamide-2-deoxy-β-D-glucopyranitol] | 16.2 | 18.1
10 | CC(=O)N[C@@H]1[C@@H](O[C@@H]2O[C@H](C(=O)O)[C@@H](O[C@@H]3O[C@H](CO)[C@@H](O)[C@H](O[C@@H]4O[C@H](C(=O)O)[C@@H](O[C@@H]5O[C@H](CO)[C@@H](O)[C@H](O[C@@H]6O[C@H](C(=O)O)[C@@H](O[C@@H]7O[C@H](CO)[C@@H](O)[C@H](O[C@@H]8O[C@H](C(=O)O)[C@@H](O[C@@H]9O[C@H](CO)[C@@H](O)[C@H](O[C@@H]%10OC(C(=O)O)=C[C@H](O)[C@H]%10O)[C@H]9NC(C)=O)[C@H](O)[C@H]8O)[C@H]7NC(C)=O)[C@H](O)[C@H]6O)[C@H]5NC(C)=O)[C@H](O)[C@H]4O)[C@H]3NC(C)=O)[C@H](O)[C@H]2O)[C@H](O)[C@@H](CO)O[C@H]1O [compound 4] | 53.4 | 51.0

— patent publication US6894034B1, “Sebum production inhibitors” (Maruha Corporation, priority 1999, dated 2005)
